One block for each compound: values may come before it.
What was measured:
EpiDerm skin substitutes = experiment: Skin irritation in reconstructed human epidermal model EpiDerm (MTT viability); type: cell-based; design: key to Classification: I = irritant; NI = non irritant
Experimental: Materials and Methods: Thirty p of each sample was applied on top of EpiDerm skin substitutes.
EpiDerm skin substitutes (cat. EPI-200-SIT; Lot #29690) and 5% SDS solution (positive control) were obtained from MatTek (Ashland, Mass.). The test was generally performed according to MatTek protocol. The study was conducted in line with requirements of OECD GD 34 and ECVAM Performance Standard document for applying human skin models to in vitro skin irritation. This protocol utilizes the MTT-based cytotoxicity readout as the experimental endpoint, and thus effectively measures the cytotoxicity of test materials at the level of the skin. MTT [3-(4,5-Dimethylthiazol-2-yl)-2,5-diphenyltetrazolium bromide, a tetrazole] which is yellow, is reduced to purple formazan in living cells and this conversion is measured in a colorimetric assay. MTT assay measures the activity of succinate dehydrogenase, a key enzyme in the respiratory electron transport chain in mitochondria and is a generally-accepted test for measuring cytotoxicity.
Statistically significant variation was defined as ≥15% variation from the water control with p value<0.05 calculated using double-tailed t-test.

IL-8 = IL-8 quantification in EpiDerm-conditioned media (ELISA); type: cell-based, human
Experimental: The test material was assayed in duplicates. Controls were assayed in triplicates. The negative control was type I sterile water and Finsolv. The positive control was 5% SDS. All incubations were at 37° C. The pre-incubation time 1 (tissue acclimatization time) was overnight and the exposure to samples was 60 min. Tissues were then rinsed with sterile PBS and placed in the new culture medium. Post-incubation time 1 was 24 h, afterward medium was collected and saved at −20° C. for later interleukin quantification, and tissues were placed in new medium. Post-incubation time 2 was 18 h (both post-incubation times are to allow the consequences of the potential irritation to fully develop), MTT test (irritation readout) was 3 h and the extraction was left overnight. The extracted formazan (the product of the MTT conversion, proportional to cell viability) was quantified with Molecular Devices microplate reader MAX190 by colorimetry. Signal quantification was performed using SoftMax3.1.2PRO at 560 nm. For IL-8 quantification (a complementary method for assessing skin irritation), 100 μl samples of media from each well were tested in triplicates using CytoSet antibody pair for ELISA from Thermo Fischer Scientific (Waltham, Mass.; cat. #133301) according to the manufacturer's instructions. […]

PPAR-α = molecular target: T1, PPAR-α (Homo sapiens, UniProt Q07869); experiment: PPAR-α luciferase reporter assay in CHO cells
T1 sequence (Q07869 1-468): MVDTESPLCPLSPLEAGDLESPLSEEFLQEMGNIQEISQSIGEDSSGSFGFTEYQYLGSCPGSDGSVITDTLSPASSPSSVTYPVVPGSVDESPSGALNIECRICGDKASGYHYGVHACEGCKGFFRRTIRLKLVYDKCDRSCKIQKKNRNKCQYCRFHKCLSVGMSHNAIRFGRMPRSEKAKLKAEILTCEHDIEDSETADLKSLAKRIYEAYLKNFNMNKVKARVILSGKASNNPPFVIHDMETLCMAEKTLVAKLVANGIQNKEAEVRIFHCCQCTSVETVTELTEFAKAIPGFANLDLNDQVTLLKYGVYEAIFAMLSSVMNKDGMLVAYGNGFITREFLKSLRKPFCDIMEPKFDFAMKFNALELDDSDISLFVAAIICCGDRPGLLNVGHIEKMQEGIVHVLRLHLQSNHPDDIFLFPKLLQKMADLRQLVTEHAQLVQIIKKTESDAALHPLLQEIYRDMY
Experimental: The objective of this project was to determine the effects of the test materials listed in Table 4 on the transcription regulatory activity of PPARα in a luciferase reporter assay system.
A variety of samples were tested on the effect on the transcription of the PPAR-α controlled luciferase reporter gene.
PPAR-α Luciferase experiment: Compositions were tested at 250 μg/mL Dilution in DMSO (FIG. 1) and 500 μg/mL Dilution in DMSO (FIG. 2).
Table 5 summarizes the effect of different concentrations of test materials on the transcriptional activation of the luciferase reporter gene under the PPAR-α-controlled promoter (2 separate experiments, Experiment 1 wherein sample prep was done in water and Experiment 2 wherein the sample prep was done in DMSO).

CHO cells = experiment: Cytotoxicity observed in the PPAR-α luciferase reporter assay; settings: for Cytotoxic?: Experiment 2 (sample prep in DMSO)
Experimental: A variety of samples were tested on the effect on the transcription of the PPAR-α controlled luciferase reporter gene. CHO cells were utilized and are an epithelial cell line derived from the ovary of the Chinese hamster.

[1] = test system: C57BL/6 mouse melanocytes; experiment: Melanin content in melanocytes and melanocyte-conditioned medium; type: cell-based; settings: 3 days; for % Control (extracellular melanin): melanocyte-conditioned medium
Experimental: Materials & Methods: Test material was dissolved at 100 mg/ml in DMSO the day of the experiment, diluted in sterile distilled water and samples were added in duplicates to confluent cultures of C57BL/6 mouse melanocytes well plate format. The cell growth medium was Opti-MEM supplemented with 7% horse serum (ThermoFisher Scientific, Waltham, Mass.) and antibiotics. Medium was freshly changed on Day 0 of the experiment. Cells were grown in the presence of the test material for 3 days, afterward they were frozen at −20° C., lysed in Solvable (Perkin Elmer, Waltham, Mass.) at 37° C. for 60 min. and colorimetrically quantified at 490 nm with Molecular Devices (Sunnyvale, Calif.) microplate reader MAX190. Kojic acid (100 μg/ml and 200 μg/ml) was the positive control. Statistically significant variation was defined as >20% variation from the water control with p value<0.05 calculated with double-tailed t-test.
Test materials were added to exponentially-growing cultures and the experiment was terminated 3 days later.

[2] = Lipophilic oxygen radical absorbance capacity (Lipo-ORAC) assay; type: biochemical; settings: expressed in Trolox equivalents
Experimental: Because of its damaging effect on vital biological systems, oxidative stress has been implicated in more than 100 diseases and aging. The objective of this test was to measure the antioxidant potential of the test materials listed in Table I using lipophilic oxygen radical absorbance capacity (Lipo-ORAC) assay (Stock solutions were prepared in acetone at 2% and diluted in 7% RMCD immediately before the experiment). Lipo-ORAC assay measures the ability of antioxidant compounds to inhibit the decline in disodium fluorescein (FL) fluorescence that is induced by peroxyl radical generator, 2′,2′-Azobis (2-amidinopropane) dihydrochloride (AAPH). The peroxyl radical is one of the most common reactive oxygen species (ROS) found in the body. This procedure incorporates random methylated beta-cyclodextrin as a solubility enhancer and allows for quantification of antioxidant potential of lipophilic samples, using Trolox as standard. Applied Biosystems Cytofluor 4000 fluorometer and software were used for the quantification of this assay.

PPAR-γ = molecular target: T2, PPAR-γ (Homo sapiens, UniProt P37231); experiment: PPAR-γ luciferase experiment; type: cell-based; settings: statement of the description
T2 sequence (P37231 1-505): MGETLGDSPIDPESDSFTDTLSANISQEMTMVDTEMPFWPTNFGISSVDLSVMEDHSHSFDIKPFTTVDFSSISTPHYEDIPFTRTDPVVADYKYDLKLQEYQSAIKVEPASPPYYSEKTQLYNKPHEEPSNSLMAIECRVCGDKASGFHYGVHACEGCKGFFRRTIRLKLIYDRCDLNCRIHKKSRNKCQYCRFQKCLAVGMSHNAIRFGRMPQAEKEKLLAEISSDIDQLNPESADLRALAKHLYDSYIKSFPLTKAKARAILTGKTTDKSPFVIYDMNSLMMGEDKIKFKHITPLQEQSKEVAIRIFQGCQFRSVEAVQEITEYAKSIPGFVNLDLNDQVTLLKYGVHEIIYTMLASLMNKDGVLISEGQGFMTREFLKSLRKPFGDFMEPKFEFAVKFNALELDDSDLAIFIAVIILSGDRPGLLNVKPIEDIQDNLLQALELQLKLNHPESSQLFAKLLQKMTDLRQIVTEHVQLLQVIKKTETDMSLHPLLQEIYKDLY
Experimental: PPAR-γ Luciferase experiment: Compositions were tested at 50 μg/mL Dilution in DMSO (FIG. 3) and 200 μg/mL Dilution in DMSO (FIG. 4). Positive control: Rosiglitazone at 300 nM potent and selective agonist of PPARγ.

[3] = Experiment 2 (sample prep in DMSO), 250 μg/mL
[4] = Experiment 2 (sample prep in DMSO), 500 μg/mL
[5] = Experiment 1 (sample prep in water), 300 nM
[6] = Experiment 2 (sample prep in DMSO), 300 nM

decrease of the IL-8 level (IL-8): 55%
Compound: CCCCCCCCCCCCOS(=O)(=O)[O-].[Na+] [5% SDS]
cells viable (EpiDerm skin substitutes; MTT): 12%
Mean of OD (EpiDerm skin substitutes; MTT formazan at 560 nm, 60 min exposure, RFV3 at 10% in Finsolv): 0.038
Mean of Viability [% water] (EpiDerm skin substitutes; MTT, 60 min exposure, RFV3 at 10% in Finsolv): 2 % water
Classification (EpiDerm skin substitutes; RFV3 at 10% in Finsolv): I

% Control (H2O) (PPAR-α; [3]): 45%
Chemoluminescence (PPAR-α; [3]): 2 arbitrary units
% Control (H2O) (PPAR-α; [4]): 41%
Chemoluminescence (PPAR-α; [4]): 2 arbitrary units
Compound: CCCCCCCCC(O)CCCCCCCCC(=O)O (centres unmarked) [10HSA, Hydroxystearic Acid]
Cytotoxic? (CHO cells; 250 μg/mL): Yes
Cytotoxic? (CHO cells; 500 μg/mL): Yes

% Control (H2O) (PPAR-α; [5]): 365%
Chemoluminescence (PPAR-α; [5]): 344 arbitrary units
% Control (H2O) (PPAR-α; [6]): 341%
Chemoluminescence (PPAR-α; [6]): 19 arbitrary units
effect on transcriptional activation of the luciferase reporter gene under the PPAR-α-controlled promoter (in words) (PPAR-α; summary of Table 5): strongly upregulated
Compound: Cc1nc(-c2ccc(C(F)(F)F)cc2)sc1C(=O)NCc1ccc(OC(C)(C)C(=O)O)cc1 [GW590735]

Compound: O=c1cc(CO)occ1O [Kojic acid]
% Control (intracellular melanin) ([1]; 100 μg/ml): 92%
% Control (extracellular melanin) ([1]; 100 μg/ml): 90%
% Control (intracellular melanin) ([1]; 200 μg/ml): 86%
% Control (extracellular melanin) ([1]; 200 μg/ml): 84%

Compound: CCCCCCCCC(CCCCCC)C(=O)OC[C@H](OC(=O)C(CCCCCC)CCCCCCCC)[C@H]1OC(=O)C(OC(=O)C(CCCCCC)CCCCCCCC)=C1OC(=O)C(CCCCCC)CCCCCCCC (some centres unmarked) [Tetrahexyldecyl (THD) ascorbate]
ORAC (Lipo-ORAC score) [2]: 0 μmoles TE/g
ORAC (Lipo-ORAC score) ([2]; listed as THD ascorbate): no activity

Compound: Cc1c(C)c2c(c(C)c1O)CCC(C)(C(=O)O)O2 (centres unmarked) [Trolox]
ORAC (Lipo-ORAC score) [2]: 3985 μmoles TE/g

PPARγ agonist activity (in words) (PPAR-γ): moderate PPARγ agonist
% Control (H2O) (PPAR-α; [3]): 145%
Chemoluminescence (PPAR-α; [3]): 8 arbitrary units
% Control (H2O) (PPAR-α; [4]): 24%
Chemoluminescence (PPAR-α; [4]): 1 arbitrary units
PPAR / PPARα agonist activity (in words) (PPAR-α; statements of the description): very mild PPARα agonist
Compound: CCCCCC/C=C/C#CCCCCCCCC(=O)O [XA, (E)-Octadec-11-en-9-ynoic acid]
cytotoxicity (in words) (CHO cells; Example 8, FIG. 9, 500 μg/mL in DMSO): cytotoxic
Cytotoxic? (CHO cells; 500 μg/mL): Yes

% Control (H2O) (PPAR-α; [3]): 278%
Chemoluminescence (PPAR-α; [3]): 15 arbitrary units
% Control (H2O) (PPAR-α; [4]): 97%
Chemoluminescence (PPAR-α; [4]): 5 arbitrary units
Compound: Octadecenedioic Acid [ODA]

Source: US12485085B2, “PPAR agonist complex and methods of use” (RODAN & FIELDS, LLC, priority 2019, dated 2025)
